# Laboratory results from PMC12210405, “Identification of chemical scaffolds for targeting ubiquitin-specific protease 11 (USP11) through high-throughput virtual screening” (Journal of Enzyme Inhibition and Medicinal Chemistry, 2025).
# pIC50, pKd: −log10 of the molar value.
# Tests used:
# GST-USP11 [1] = biological target: T1, GST-USP11 (Homo sapiens, UniProt P51784); assay: Fluorescence-based deubiquitinating enzyme activity assay (Ub-AMC fluorogenic substrate); assay type: biochemical; details: for inhibition at 25 µM: read-out: Percent inhibition of USP11
# T1 construct: The plasmids containing the intact USP11 gene were introduced into E. coli BL21-CodonPlus (DE3); made in house; host or cells: E. coli BL21-CodonPlus (DE3)
# T1 sequence (P51784 whole entry): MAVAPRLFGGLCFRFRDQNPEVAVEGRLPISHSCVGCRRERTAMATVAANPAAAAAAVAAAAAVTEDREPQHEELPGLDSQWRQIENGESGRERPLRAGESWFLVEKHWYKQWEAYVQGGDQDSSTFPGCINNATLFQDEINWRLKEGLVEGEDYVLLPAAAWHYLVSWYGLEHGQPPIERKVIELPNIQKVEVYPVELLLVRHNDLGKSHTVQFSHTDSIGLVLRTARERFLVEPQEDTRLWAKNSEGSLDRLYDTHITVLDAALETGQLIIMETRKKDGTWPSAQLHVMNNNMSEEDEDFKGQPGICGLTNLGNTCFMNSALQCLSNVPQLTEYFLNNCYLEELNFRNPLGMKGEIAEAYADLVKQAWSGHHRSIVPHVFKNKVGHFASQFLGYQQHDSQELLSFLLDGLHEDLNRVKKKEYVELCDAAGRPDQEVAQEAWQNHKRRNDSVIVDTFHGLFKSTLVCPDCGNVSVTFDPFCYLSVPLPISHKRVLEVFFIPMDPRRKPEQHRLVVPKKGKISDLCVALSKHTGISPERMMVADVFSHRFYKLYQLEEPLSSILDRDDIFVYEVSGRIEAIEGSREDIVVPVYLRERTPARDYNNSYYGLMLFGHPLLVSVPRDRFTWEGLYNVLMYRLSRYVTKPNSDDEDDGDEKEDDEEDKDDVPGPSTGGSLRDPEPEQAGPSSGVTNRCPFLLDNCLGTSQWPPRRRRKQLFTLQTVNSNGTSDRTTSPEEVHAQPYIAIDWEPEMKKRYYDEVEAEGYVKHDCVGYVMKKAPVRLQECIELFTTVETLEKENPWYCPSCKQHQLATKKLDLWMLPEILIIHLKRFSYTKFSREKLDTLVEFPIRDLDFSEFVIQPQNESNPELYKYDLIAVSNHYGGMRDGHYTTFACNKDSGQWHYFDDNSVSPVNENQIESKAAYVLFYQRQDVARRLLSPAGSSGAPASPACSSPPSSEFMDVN
# Text: The deubiquitinating enzyme (DUB) activity of USP11 was monitored using Ubiquitin AMC (Ub-AMC) (#U-550–050, R&D Systems, Minneapolis, MN, USA) as a fluorogenic substrate. […] USP11 DUB activity of vehicle control or each compound group was quantified by calculating the area under curve (AUC) using Prism 9 software (GraphPad, Boston, MA, USA).
# Using a -fluorogenic substrate assay with ubiquitin 7-amido-4-methylcoumarin (Ub-AMC), we tested varying concentrations of both the protein and the substrate. […] Hits were defined as compounds that inhibited enzyme activity by more than 40%, as determined by fluorescence intensity at the 90-min endpoint.
# USP15 = details: cited from earlier work
# GST-USP11 [2] = biological target: T1, GST-USP11; assay: Biolayer interferometry (BLI) assay; assay type: binding
# Protocol: The binding affinities of tested compounds for USP11 were determined using BRAND® microplates (#BR781608, Merck, Darmstadt, Germany) and an Octet® R8 system (Sartorius AG, Göttingen, Germany). Octet GST Biosensors (#18–5096, Sartorius AG, Göttingen, Germany) captured with purified GST-USP11 (50 μg/ml) or without proteins were used as ligand sensors or reference sensors, respectively. For binding kinetic measurements, the association and dissociation of tested compounds (3.125–100 μM) in assay buffer (PBS, 0.02% Tween 20, 2% DMSO) were monitored at 25 °C with 1,000 rpm stirring for 90 s. For accurate baseline, wells containing assay buffer only were used as reference wells. All data were analysed by Octet BLI analysis software version 12.2 (Sartorius AG, Göttingen, Germany). The binding graphs were obtained using a double reference subtraction protocol and equilibrium dissociation constant (KD) values were calculated from the ratio of the dissociation rate constant (Kdis) to the association rate constant (Kon).
# [3] = compound 25 µM, 90-min endpoint, Ub-AMC
Structure (SMILES),inhibition at 25 µM (GST-USP11 [1]; [3]) [%],further results
Nc1ccc(O)c2c1C(=O)c1c(cccc1[N+](=O)[O-])C2=O [Compound 74c],38.1,
O=[N+]([O-])c1c(N2CCCCC2)cc(N2CCCCC2)c2nonc12 [Compound 18d],27.9,
N#CC1CCCN1C(=O)CNC1CCC(Nc2ccc([N+](=O)[O-])c3nonc23)CC1 (centres unmarked) [Compound 18f],23.8,
NCCNc1ccc(NCCN)c2c1C(=O)c1ccncc1C2=O [Compound 74a],58.4,
O=C(CCc1ccc(F)cc1)N/N=C/c1ccc(O)c(O)c1O [Compound 29],41.5,
O=[N+]([O-])c1ccc(N2CCCCC2)c2nonc12 [Compound 18b],3.3,
N#CC1CCCN1C(=O)CNC1CCCN(c2ccc([N+](=O)[O-])c3nonc23)C1 (centres unmarked) [Compound 18],55.8,
O=[N+]([O-])c1ccc(N2CCCC2)c2nonc12 [Compound 18a],15,
CC(CO)C1CCC2C3C(CCC12C)C1(C)CCC(NCCCCN)C[C@@H]1C[C@H]3O (some centres unmarked) [Compound 57],44.8,
CCOc1cc(/C=C/C(=O)N2CCN(c3ccc(NC(=N)c4ccc[nH]4)cc3)CC2)cc(OCC)c1O [Compound 73c],76.8,
CCCCOc1cc(CN2CCN(c3ccc(NC(=N)c4cccs4)cc3)CC2)cc(OCCCC)c1O [Compound 73e],23,
Nc1ccc(NC(=O)c2ccccc2)c2c1C(=O)c1ccccc1C2=O [Compound 74f],7.38,
CCCCCOc1cc(CN2CCN(c3ccc(NC(=N)c4cccs4)cc3)CC2)cc(OCCCCC)c1O [Compound 73d],23,
O=C1c2ccccc2C(=O)c2c1cc(N1CCOCC1)cc2N1CCCCC1 [Compound 74g],6.51,
"O=C1c2c(O)ccc(O)c2C(=O)c2c(NCCNCCO)ccc(NCCNCCO)c21 [Mitoxantrone, mitoxantrone]",,USP15 inhibition in words (USP15): also inhibits USP15
N#CC1CCCN1C(=O)CNCCN1CCN(c2ccc([N+](=O)[O-])c3nonc23)CC1 (centres unmarked) [Compound 18h],7.89,
"CC(C)[C@@H](CC[C@@H](C)[C@H]1CC[C@H]2[C@@H]3[C@H](O)C[C@H]4C[C@@H](NCCCNCCCCN)CC[C@]4(C)[C@H]3CC[C@]12C)OS(=O)(=O)O [Squalamine, squalamine]",,"Percent inhibition of USP11 (GST-USP11 [1]; [3]): completely inhibits; pIC50 (GST-USP11 [1]; recombinant USP11): 5.08; pKd (GST-USP11 [2]): 3.34; kon (GST-USP11 [2]; Figure 3c): 1380 M⁻¹ s⁻¹; koff (GST-USP11 [2]; Figure 3c, read-out: Kdis): 0.634 s⁻¹"
CCOc1cc(CN2CCN(c3ccc(NC(=N)c4ccc[nH]4)cc3)CC2)cc(OCC)c1O [Compound 73b],38.1,
CCCCCOc1cc(CN2CCN(c3ccc(NC(=N)c4ccc[nH]4)cc3)CC2)cc(OCCCCC)c1O [Compound 73a],90.3,"pIC50 (GST-USP11 [1]; USP11, Figure S6): 4.76"
CN(c1ccc(C=O)cc1)c1cccc2c1C(=O)c1ccccc1C2=O [Compound 74e],16.8,
O=[N+]([O-])c1ccc(N2CCCCCC2)c2nonc12 [Compound 18c],36.9,
CCOC(=O)CCNc1ccc(Nc2ccc(C)cc2)c2c1C(=O)c1ccccc1C2=O [Compound 74d],0,
CCCCOc1cc(CN2CCN(c3ccc(NC(=N)c4ccc[nH]4)cc3)CC2)cc(OCCCC)c1O [Compound 73],43.9,
NC1CCC(Nc2ccc([N+](=O)[O-])c3nonc23)CC1 (centres unmarked) [Compound 18e],64.8,
N#CC1CC=NN1C(=O)CNC1CCC(Nc2ccc([N+](=O)[O-])c3nonc23)CC1 (centres unmarked) [Compound 18g],70.9,
CCCCOc1cc(/C=C/C(=O)N2CCN(c3ccc(NC(=N)c4ccc[nH]4)cc3)CC2)cc(OCCCC)c1O [Compound 73f],89.9,"pIC50 (GST-USP11 [1]; USP11, Figure S6): 4.71"
